pIC50, pKd: −log10 of the molar value. Like-named read-outs stand apart in the source and are kept apart here.
How the values were obtained:
Maximum tolerated dose = assay type: in vivo, mice; conditions: for Euthanized (mice) / Healthy (mice) / Sick (mice): thrice weekly tail vein, three mice per group
Method: Maximum tolerated dose. Various concentrations of L2-Tubulysin B were administered to male nu/nu mice thrice weekly via tail vein injection. Visibly sick mice were recorded and if necessary euthanized before the end of the experiment. […] Therefore, a dose of 2 μmol/kg was used for further in vivo efficacy studies.

HT29 subcutaneous tumors = test: In vivo xenograft tumor efficacy of L2-Tubulysin B; set-up: species or system mice; conditions: for tumor growth: thrice weekly for 3 weeks
Method: Once tumors reached a volume of ˜100 mm^3, mice were randomized into various treatment groups (n=3 for each IP group). L2-Tubulysin B (2 μmol/kg) was administered intraperitoneally in the presence or absence of 100-fold excess CA IX ligand L2 every other day for 9 doses. Tumor volume and weight were measured every other day. Error bars represent standard error of the mean. FIG. 10A: (●) PBS Control, (▴) L2-Tubulysin B, (□) Competition. FIG. 10B: (●) PBS Control, (▴) L2-Tubulysin B, (□) Competition.
Once tumors reached a volume of ˜100 mm^3, mice were randomized into various treatment groups (n=5 for each IV group). CA IX-Tubulysin B ([…]) was administered via tail vein injection in the presence or absence of 100-fold excess CA IX ligand every other day for 9 doses. Tumor volume and weight were measured every other day. Error bars represent standard error of the mean. FIG. 11A: (●) PBS Control, (▴) L2-Tubulysin B, (□) Competition. FIG. 11B: (●) PBS Control, (▴) L2-Tubulysin B, (□) Competition.
In vivo xenograft tumor efficacy of L2-Tubulysin B. HT29 cells (5.0×10^6) were injected into the shoulders of 5-6 week old female nu/nu mice. Tumors were measured in two perpendicular directions thrice weekly with vernier calipers and their volumes were calculated as 0.5×L×W^2, where L is the longest axis (in millimeters), and W is the axis perpendicular to L (in millimeters). Dosing of L2-Tubulysin B in the presence or absence of 100-fold excess CA IX inhibitor L2 was initiated when the subcutaneous tumors reached ˜100 mm^3 in volume. Dosing solutions were prepared in saline and filtered through a 0.22 μm filter. Solutions were administered via tail vein injection or intraperitoneally. Each mouse received 2 μmol/kg L2-Tubulysin B per injection. Injections were given thrice weekly for 3 weeks and the mice were weighed concurrently.

HT-29 cells [1] = assay type: cell-based, human; conditions: for pIC50: 2 h exposure, additional 66 h in fresh medium, read-out: IC50 (3H-thymidine incorporation)
Method: After washing, the cells were incubated for […] and their viability was determined via ^3H-thymidine uptake.
HT-29 cells were seeded on amine-coated 24-well plates and allowed to form monolayers. The spent medium in each well was replaced with fresh medium (0.5 mL) containing various concentrations of Tubulysin B or L2-Tubulysin B in the presence or absence of 100-fold excess CA IX inhibitor L2. After incubating for 2 h at 37° C., cells were rinsed 3 times with fresh medium and then incubated an additional 66 h at 37° C. in fresh medium. Spent medium in each well was again replaced with fresh medium (0.5 mL) containing ^3H-thymidine (1 μCi/ml) and the cells were incubated for an additional 4 h. After washing the cells 3 times with medium, they were dissolved in 0.5 mL of 0.25 M NaOH. Thymidine incorporation was then determined by counting cell-associated radioactivity using a scintillation counter (Packard, Packard Instrument Company). The IC50 value was derived from a plot of the percent of ^3H-thymidine incorporation versus log concentration using Graph Pad Prism 4 and TableCurve 2D software.

HT-29 cells [2] = test: 99mTc conjugates binding to HT-29 cells (apparent KD, gamma counting); set-up: species or system human; conditions: for pKd: 99mTc-bound conjugate, 1 h at 37° C., read-out: Binding Affinity (apparent KD)
Method: HT-29 cells (150,000 cells/well in 500 μL) were seeded into 24-well Falcon plates and allowed to form monolayers over 48 h. […] After incubating for 1 h at 37° C., cells were rinsed twice with 1 mL of medium and 1 mL of tris buffer. After dissolving in 0.5 mL of 0.25 M NaOH (aq), cells were transferred into individual γ-counter tubes and radioactivity was counted using a γ-counter (Packard, Packard Instrument Company). Apparent KD was calculated by plotting bound radioactivity versus the concentration of radiotracer using GraphPad Prism 4.

HT-29 xenograft tumors = conditions: for relative average radioactive intensity in the tumor: 10 nmol tail vein, kidneys shielded
Method: Whole animal images were taken 4 hours post-injection. […] The percentage of the injected dose per gram of tissue was determined and plotted. Error bars represent standard deviation. (□) Competition; (▪) L2-PEG36-EC20. […] Whole animal images were taken 9 hours post-injection. […] The percentage of the injected dose per gram of tissue was determined and plotted. Error bars represent standard deviation. (□) Competition; (▪) L2-PEG36-EC20. […] Whole animal images were taken 24 hours post-injection. […] The percentage of the injected dose per gram of tissue was determined and plotted. Error bars represent standard deviation. (□) Competition; (▪) L2-PEG36-EC20. […] At various times, animals were sacrificed by CO2 asphyxiation. […] Three mice bearing HT-29 xenografts were administered 10 nmol of conjugate via tail vein injection while an additional three mice also received 100-fold excess unconjugated inhibitor. A single mouse from each of the two groups was sacrificed for whole animal imaging and tissue/organ biodistribution analysis at 4, 9 and 24 hours post injection.

HT-29 cells [3] = test: Fluorescent microscopy: binding of rhodamine-labeled CA IX conjugates to HT-29 cells; assay type: cell-based, human; conditions: 1 hour at 37° C.; alone or plus 100-fold excess CA IX inhibitor; confocal microscopy
Method: Fluorescent conjugates were incubated with HT-29 cells in the presence or absence of 100-fold excess unlabeled ligand. After washing, white light and fluorescent microscopy were used to visualize binding.
a. HT-29 cells (10^5) were seeded into chambered coverglass plates and allowed to grow to confluence over 48-72 hr. Spent medium was replaced with 0.5 mL of fresh medium containing 0.5% bovine serum albumin and various concentrations of the dye conjugate (L1-Rhodamine, L2-Rhodamine or L3-Rhodamine) alone or the dye conjugate plus 100-fold excess CA IX inhibitor L1, L2 or L3, where appropriate. After incubation for 1 hour at 37° C., cells were rinsed twice with 1 mL of incubation solution to remove unbound fluorescence and 0.5 ml of fresh incubation medium was added to the wells. Images were acquired using a confocal microscopy (FV 1000, Olympus).

[4] = test system: HCT-116, HT-29, RCC4 and SK-RC-38 human cancer cell lines; test: Fluorescent microscopy: binding of L2-Rhodamine to CA IX expressing cell lines; assay type: cell-based
Method: After washing, white light and fluorescent microscopy were used to visualize binding.
b. HCT-116, HT-29, RCC4 and SK-RC-38 human cancer cell lines (10^5) were seeded into chambered coverglass plates and allowed to grow to confluence over 48-72 hr. […] After incubation for 1 hour at 37° C., cells were rinsed with incubation solution (2×1.0 mL) to remove unbound conjugate then washed with PBS (1×1.0 mL). Images were acquired using confocal microscopy (FV 1000, Olympus). […] Additionally, the punctate appearance in several of the cell lines is indicative of a rapid internalization of the bound conjugate.

## CCCC(=O)OCN(C(=O)[C@@H](NC(=O)[C@H]1CCCCN1C)[C@@H](C)CC)[C@H](C[C@@H](OC(C)=O)c1nc(C(=O)N[C@@H](Cc2ccc(O)cc2)C[C@H](C)C(=O)NNC(=O)OCCSSC[C@H](NC(=O)[C@H](CC(=O)O)NC(=O)[C@@H](N)CNC(=O)CCOCCOCCOCCOCCOCCOCCOCCOCCOCCOCCOCCOCCNC(=O)CN(CCN(CC(=O)O)CC(=O)Nc2ccc(S(N)(=O)=O)cc2)CC(=O)Nc2ccc(S(N)(=O)=O)cc2)C(=O)O)cs1)C(C)C [L2-Tubulysin B]
Maximum tolerated dose; 1 μmol/kg
  adverse events: no adverse events were identified
  Euthanized (mice): 0
  Healthy (mice): 3
  Sick (mice): 0
Maximum tolerated dose; 3 μmol/kg
  Euthanized (mice): 0
  Healthy (mice): 2
  Sick (mice): 1
Maximum tolerated dose; 5 μmol/kg
  Euthanized (mice): 2
  Healthy (mice): 0
  Sick (mice): 1
Maximum tolerated dose; highest dose
  signs of toxicity: all mice showed signs of toxicity
HT29 subcutaneous tumors; 2 μmol/kg
  tumor growth with 100-fold excess CA IX inhibitor L2: growth of the tumors was similar to the control group
HT29 subcutaneous tumors; 2 μmol/kg intraperitoneally
  tumor growth: essentially halted tumor growth
HT29 subcutaneous tumors; 2 μmol/kg via tail vein injection
  tumor growth: essentially halted tumor growth
HT29 subcutaneous tumors; 2 μmol/kg, both routes
  gross toxicity: no gross toxicity was observed
  loss of weight: no loss of weight was observed
HT-29 cells [1]
  pIC50: 8.36
HT-29 cells [1]; HT-29 cells
  cytotoxic effect with 100-fold excess of the unconjugated inhibitor: completely abrogated

## CCCC(=O)OCN(C(=O)[C@@H](NC(=O)[C@H]1CCCCN1C)[C@@H](C)CC)[C@H](C[C@@H](OC(C)=O)c1nc(C(=O)N[C@@H](Cc2ccc(O)cc2)C[C@H](C)C(=O)O)cs1)C(C)C [Tubulysin B, reference compound]
HT-29 cells [1]
  pIC50: 10.10

## N[C@H](CNC(=O)CCOCCOCCOCCOCCOCCOCCOCCOCCOCCOCCOCCOCCOCCOCCOCCOCCOCCOCCOCCOCCOCCOCCOCCOCCOCCOCCOCCOCCOCCOCCOCCOCCOCCOCCOCCOCCNC(=O)CN(CCN(CC(=O)O)CC(=O)Nc1ccc(S(N)(=O)=O)cc1)CC(=O)Nc1ccc(S(N)(=O)=O)cc1)C(=O)N[C@@H](CC(=O)O)C(=O)NC[C@H](CS)C(=O)O [L2-PEG36-EC20]
HT-29 cells [2]
  pKd: 7.24
HT-29 xenograft tumors; 4, 9 and 24 hours post injection
  tumor intensity with concurrent 100-fold excess unconjugated inhibitor: did not exhibit any intensity in the tumor
HT-29 xenograft tumors; 4 hours post injection
  relative average radioactive intensity in the tumor: ~1300
HT-29 xenograft tumors; 9 hours post injection
  relative average radioactive intensity in the tumor: 750
HT-29 xenograft tumors; 24 hours post injection
  relative average radioactive intensity in the tumor: 350

## CN(C)c1ccc2c(-c3ccc(C(=O)NCCCCCNC(=O)CN(CCN(CC(=O)O)CC(=O)Nc4ccc(S(N)(=O)=O)cc4)CC(=O)Nc4ccc(S(N)(=O)=O)cc4)cc3C(=O)O)c3ccc(=[N+](C)C)cc-3oc2c1 [Conjugate L2-Rhodamine]
HT-29 cells [3]
  binding to HT-29 cells and competition by excess unconjugated inhibitor: bound the cells and were competed in the presence of excess unconjugated inhibitor
[4]; competing unconjugated CA IX inhibitor as printed (method: 100-fold excess L2)
  binding in the presence of competing unconjugated CA IX inhibitor: essentially no binding was observed
[4]; dye conjugate alone, 1 hour at 37° C., confocal microscopy
  binding to cell lines: binding is observed in every cell line tested

## CN(C)c1ccc2c(-c3ccc(C(=O)NCCOCCOCCOCCOCCC(=O)Nc4cccc(NC(=O)Nc5ccc(S(N)(=O)=O)cc5)c4)cc3C(=O)O)c3ccc(=[N+](C)C)cc-3oc2c1 [Conjugate L3-Rhodamine]
HT-29 cells [3]
  binding to HT-29 cells and competition by excess unconjugated inhibitor: bound the cells and were competed in the presence of excess unconjugated inhibitor

## N[C@H](CNC(=O)CCOCCOCCOCCOCCOCCOCCOCCOCCOCCOCCOCCOCCNC(=O)CCC(=O)Nc1cccc(NC(=O)Nc2ccc(S(N)(=O)=O)cc2)c1)C(=O)N[C@@H](CC(=O)O)C(=O)NC[C@H](CS)C(=O)O [L3-PEG12-EC20]
HT-29 cells [2]
  pKd: 6.84
HT-29 cells [2]; binding affinity of conjugate versus reported Ki of original ligand
  decrease of binding by addition of the PEG12-EC20: 162 fold
